Assay results from PubChem BioAssay AID1745844 (Carcinogenic Potency Database (CPDB), 2022).
Active and inactive are the calls of the source. The rule behind the calls is not given here.

Tested on: rodent lifetime carcinogenesis bioassay, tumor incidence TD50
Assay: carcinogenic potency in animals, long-term in vivo studies, CPDB compilation (AID 1745844)
Conditions: mouse, study length 104 weeks

Work on `ClCCl` yielded a TD50 (strain B6C3F1, females, inhaled, site: any site (literature study), lesion: several types, types named in the paper, dosed 102 weeks) of 1020 mg/kg/day, a TD50 (strain B6C3F1, females, inhaled, site: liver + lung, lesion: hepatocellular adenoma + hepatocellular carcinoma + alveolar/bronchiolar adenoma + alveolar/bronchiolar carcinoma, dosed 102 weeks) of 817 mg/kg/day and a TD50 (strain B6C3F1, females, inhaled, site: liver, lesion: hepatocellular adenoma + hepatocellular carcinoma + neoplastic nodule, dosed 102 weeks) of 1430 mg/kg/day. The TD50 (strain B6C3F1, females, inhaled, site: liver, lesion: hepatocellular adenoma + hepatocellular carcinoma, dosed 102 weeks) was 1430 mg/kg/day, the TD50 (strain B6C3F1, females, inhaled, site: liver, lesion: hepatocellular adenoma, dosed 26 weeks) was 2570 mg/kg/day and the TD50 (strain B6C3F1, females, inhaled, site: liver, lesion: hepatocellular adenoma, dosed 52 weeks) was 6250 mg/kg/day. For the same molecule, the TD50 (strain B6C3F1, females, inhaled, site: liver, lesion: hepatocellular adenoma, dosed 78 weeks) was 2780 mg/kg/day, the TD50 (strain B6C3F1, females, inhaled, site: liver, lesion: hepatocellular adenoma, dosed 102 weeks) was 3170 mg/kg/day and the TD50 (strain B6C3F1, females, inhaled, site: liver, lesion: hepatocellular adenoma, dosed 104 weeks) was 4860 mg/kg/day. The TD50 (strain B6C3F1, females, inhaled, site: liver, lesion: hepatocellular carcinoma, dosed 26 weeks) was 6790 mg/kg/day, the TD50 (strain B6C3F1, females, inhaled, site: liver, lesion: hepatocellular carcinoma, dosed 52 weeks) was 4960 mg/kg/day and the TD50 (strain B6C3F1, females, inhaled, site: liver, lesion: hepatocellular carcinoma, dosed 78 weeks) was 4020 mg/kg/day. It also gave a TD50 (strain B6C3F1, females, inhaled, site: liver, lesion: hepatocellular carcinoma, dosed 102 weeks) of 1850 mg/kg/day, a TD50 (strain B6C3F1, females, inhaled, site: liver, lesion: hepatocellular carcinoma, dosed 104 weeks) of 2750 mg/kg/day and a TD50 (strain B6C3F1, females, inhaled, site: liver, lesion: several types, types named in the paper, dosed 26 weeks) of 1840 mg/kg/day. For the same molecule, the TD50 (strain B6C3F1, females, inhaled, site: liver, lesion: several types, types named in the paper, dosed 52 weeks) was 2850 mg/kg/day, the TD50 (strain B6C3F1, females, inhaled, site: liver, lesion: several types, types named in the paper, dosed 78 weeks) was 1730 mg/kg/day and the TD50 (strain B6C3F1, females, inhaled, site: liver, lesion: several types, types named in the paper, dosed 104 weeks) was 1740 mg/kg/day. It also gave a TD50 (strain B6C3F1, females, inhaled, site: lung, lesion: adenoma, dosed 26 weeks) of 3400 mg/kg/day, a TD50 (strain B6C3F1, females, inhaled, site: lung, lesion: adenoma, dosed 52 weeks) of 3810 mg/kg/day and a TD50 (strain B6C3F1, females, inhaled, site: lung, lesion: adenoma, dosed 78 weeks) of 3590 mg/kg/day. The TD50 (strain B6C3F1, females, inhaled, site: lung, lesion: alveolar/bronchiolar adenoma + alveolar/bronchiolar carcinoma, dosed 102 weeks) was 917 mg/kg/day, the TD50 (strain B6C3F1, females, inhaled, site: lung, lesion: alveolar/bronchiolar adenoma, dosed 102 weeks) was 1420 mg/kg/day and the TD50 (strain B6C3F1, females, inhaled, site: lung, lesion: alveolar/bronchiolar adenoma, dosed 104 weeks) was 5020 mg/kg/day. It also gave a TD50 (strain B6C3F1, females, inhaled, site: lung, lesion: alveolar/bronchiolar carcinoma, dosed 102 weeks) of 1690 mg/kg/day, a TD50 (strain B6C3F1, females, inhaled, site: lung, lesion: alveolar/bronchiolar carcinoma, dosed 104 weeks) of 2670 mg/kg/day and a TD50 (strain B6C3F1, females, inhaled, site: lung, lesion: carcinoma, dosed 26 weeks) of 1650 mg/kg/day. For the same molecule, the TD50 (strain B6C3F1, females, inhaled, site: lung, lesion: carcinoma, dosed 52 weeks) was 952 mg/kg/day, the TD50 (strain B6C3F1, females, inhaled, site: lung, lesion: carcinoma, dosed 78 weeks) was 2830 mg/kg/day and the TD50 (strain B6C3F1, females, inhaled, site: lung, lesion: several types, types named in the paper, dosed 26 weeks) was 1280 mg/kg/day. It also gave a TD50 (strain B6C3F1, females, inhaled, site: lung, lesion: several types, types named in the paper, dosed 52 weeks) of 804 mg/kg/day, a TD50 (strain B6C3F1, females, inhaled, site: lung, lesion: several types, types named in the paper, dosed 78 weeks) of 1520 mg/kg/day and a TD50 (strain B6C3F1, females, inhaled, site: lung, lesion: several types, types named in the paper, dosed 104 weeks) of 1650 mg/kg/day. For the same molecule, the TD50 (strain B6C3F1, females, inhaled, site: thyroid gland, lesion: follicular-cell adenoma, dosed 102 weeks) was 15800 mg/kg/day, the TD50 (strain B6C3F1, males, in drinking water, site: liver, lesion: hepatocellular adenoma, dosed 104 weeks) was 2900 mg/kg/day (inactive) and the TD50 (strain B6C3F1, males, in drinking water, site: liver, lesion: hepatocellular carcinoma, dosed 104 weeks) was 2350 mg/kg/day (inactive). The TD50 (strain B6C3F1, males, in drinking water, site: liver, lesion: several types, types named in the paper, dosed 104 weeks) was 1310 mg/kg/day (inactive), the carcinogen call (strain B6C3F1, males, in drinking water, site: thyroid gland, lesion: one or several types, types not named, dosed 104 weeks) was “negative (inactive)” and the TD50 (strain B6C3F1, males, inhaled, site: all sites, lesion: hemangioma + hemangiosarcoma, dosed 102 weeks) was 13200 mg/kg/day. The TD50 (strain B6C3F1, males, inhaled, site: all sites, lesion: hemangiosarcoma, dosed 102 weeks) was 12900 mg/kg/day, the TD50 (strain B6C3F1, males, inhaled, site: any site (literature study), lesion: several types, types named in the paper, dosed 102 weeks) was 1160 mg/kg/day and the TD50 (strain B6C3F1, males, inhaled, site: liver + lung, lesion: hepatocellular adenoma + hepatocellular carcinoma + alveolar/bronchiolar adenoma + alveolar/bronchiolar carcinoma, dosed 102 weeks) was 1090 mg/kg/day. The TD50 (strain B6C3F1, males, inhaled, site: liver, lesion: hepatocellular adenoma + hepatocellular carcinoma + neoplastic nodule, dosed 102 weeks) was 1800 mg/kg/day, the TD50 (strain B6C3F1, males, inhaled, site: liver, lesion: hepatocellular adenoma + hepatocellular carcinoma, dosed 102 weeks) was 1800 mg/kg/day and the TD50 (strain B6C3F1, males, inhaled, site: liver, lesion: hepatocellular adenoma, dosed 102 weeks) was 3480 mg/kg/day. It also gave a TD50 (strain B6C3F1, males, inhaled, site: liver, lesion: hepatocellular carcinoma, dosed 102 weeks) of 2690 mg/kg/day, a TD50 (strain B6C3F1, males, inhaled, site: lung, lesion: alveolar/bronchiolar adenoma + alveolar/bronchiolar carcinoma, dosed 102 weeks) of 920 mg/kg/day and a TD50 (strain B6C3F1, males, inhaled, site: lung, lesion: alveolar/bronchiolar adenoma, dosed 102 weeks) of 1680 mg/kg/day. For the same molecule, the TD50 (strain B6C3F1, males, inhaled, site: lung, lesion: alveolar/bronchiolar carcinoma, dosed 102 weeks) was 1710 mg/kg/day, the TD50 (strain Swiss, females, by gavage, site: lung, lesion: adenoma, dosed 64 weeks) was 7050 mg/kg/day and the TD50 (strain Swiss, males, by gavage, site: lung, lesion: adenoma, dosed 64 weeks) was 916 mg/kg/day.
